Among the data in patent US20080194617A1, “Fused ring compound” (priority 2007, published 2008) are EC50 values, retold here.

For orientation: pEC50 means the negative decadic logarithm of the EC50, by convention in mol/L.

pEC50: −log10 of the molar value.

This experiment deals with T1, PPARγ-RXRα heterodimer (Homo sapiens, UniProt P37231).
T1 construct: expressed in transfected cells; host or cells: CHO-K1 (PPARγ:RXRα:4ERPP/CHO-K1)
T1 sequence (P37231 1-505): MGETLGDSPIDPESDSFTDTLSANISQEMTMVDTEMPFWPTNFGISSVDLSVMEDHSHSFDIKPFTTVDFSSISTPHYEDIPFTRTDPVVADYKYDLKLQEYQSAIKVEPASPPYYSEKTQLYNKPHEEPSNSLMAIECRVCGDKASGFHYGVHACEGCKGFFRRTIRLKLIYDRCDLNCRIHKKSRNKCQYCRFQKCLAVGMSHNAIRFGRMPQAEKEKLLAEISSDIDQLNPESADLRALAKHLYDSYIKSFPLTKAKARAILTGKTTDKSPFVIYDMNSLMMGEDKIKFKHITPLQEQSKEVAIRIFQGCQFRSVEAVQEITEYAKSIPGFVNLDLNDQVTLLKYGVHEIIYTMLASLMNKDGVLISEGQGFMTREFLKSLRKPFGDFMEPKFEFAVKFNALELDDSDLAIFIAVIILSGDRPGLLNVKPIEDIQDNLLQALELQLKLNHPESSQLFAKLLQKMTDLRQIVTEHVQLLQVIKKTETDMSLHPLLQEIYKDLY
T1 sequence (P19793 1-462 partner): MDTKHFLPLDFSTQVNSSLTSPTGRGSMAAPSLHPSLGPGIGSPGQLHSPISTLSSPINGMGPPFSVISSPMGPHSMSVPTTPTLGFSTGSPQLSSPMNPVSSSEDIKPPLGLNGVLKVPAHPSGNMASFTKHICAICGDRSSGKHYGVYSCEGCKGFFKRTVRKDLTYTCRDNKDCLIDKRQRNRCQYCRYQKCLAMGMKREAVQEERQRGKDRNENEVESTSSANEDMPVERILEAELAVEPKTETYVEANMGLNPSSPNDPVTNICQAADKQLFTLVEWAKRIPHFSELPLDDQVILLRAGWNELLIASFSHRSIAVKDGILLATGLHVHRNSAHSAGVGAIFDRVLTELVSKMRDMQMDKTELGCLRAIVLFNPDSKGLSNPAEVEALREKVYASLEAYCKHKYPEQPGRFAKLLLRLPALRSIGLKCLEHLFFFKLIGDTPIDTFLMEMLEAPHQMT
The experiment is described as follows: PPARγ-RXRα heterodimer ligand activity (luciferase reporter assay in PPARγ:RXRα:4ERPP/CHO-K1 cells). To be noted: incubated one day with test compound, luciferase induction rate, compound concentration showing 50% of the maximum value of induction rate. It is filed as cell-based. Here is the method: The PPARγ:RXRα:4ERPP/CHO-K1 cells described in WO03/099793 were cultured in a Ham F12 medium [manufactured by Life Technologies, Inc., US] containing 10% calf fetal serum [manufactured by Life Technologies, Inc., US], sown in a 96-well white plate [manufactured by Corning Coster Corporation, US] at 1×10^4 cells/well, and incubated overnight in a carbon dioxide gas incubator at 37° C.
Then, the medium was removed from the 96 well white plate, 45 μl of Ham F12 medium containing 0.1% fatty acid-free bovine serum albumin (BSA) and a test compound (5 μl) were added, and the cells were incubated for one day in a carbon dioxide gas incubator at 37° C. The medium was removed, 20 μl of PicaGene 7.5 (manufactured by Wako Pure Chemical Industries, Ltd.) 2-fold diluted with HBSS (HANKS' BALANCED SALT SOLUTION) [manufactured by BIO WHITTAKER, US] was added. After stirring, the luciferase activity was determined using the 1420 ARVO Multilabel Counter [manufactured by PerkinElmer, US].
The induction rate was calculated from the luciferase activity of each test compound based on the luciferase activity of the test compound non-administration group as 1. The test compound concentration and the induction rate were analyzed by PRISM [manufactured by GraphPad Software, Inc., US] to calculate EC50 value (compound concentration showing 50% of the maximum value of induction rate) of the test compound.
On the technique in general: A reporter such as luciferase makes a cellular process visible.
On to `CCCCCS(=O)(=O)NC(=O)/C=C/c1c(C)nn(C)c1-c1cccc2cccnc12` [Example 24, (2E)-3-[1,3-dimethyl-5-(quinolin-8-yl)-1H-pyrazol-4-yl]-N-(pentylsulfonyl)acrylamide], for which the pEC50 was 7.27. The compound `CCCCCNS(=O)(=O)NC(=O)/C=C/c1c(C)nn(C)c1-n1ccc2cc(Cl)ccc21` [Example 62, (2E)-3-[5-(5-chloro-1H-indol-1-yl)-1,3-dimethyl-1H-pyrazol-4-yl]-N-[(pentylamino)sulfonyl]acrylamide] showed a negative-log EC50 (pEC50) of 7.43. The pEC50 values of the last two compounds are within 0.2 log units of each other. With `CCCCNC(=O)NS(=O)(=O)CCc1c(C2CC2)nn(C)c1-n1ccc2cc(Cl)cnc21` [Example 279, N-[(butylamino)carbonyl]-2-[5-(5-chloro-1H-pyrrolo[2,3-b]pyridin-1-yl)-3-cyclopropyl-1-methyl-1H-pyrazol-4-yl]ethanesulfonamide], the pEC50 is 7.22. In turn, `CCCCCS(=O)(=O)NC(=O)/C=C/c1c(C)nn(C)c1-n1ccc2ccccc21` [Example 7, potassium {(2E)-3-[5-(1H-indol-1-yl)-1,3-dimethyl-1H-pyrazol-4-yl]prop-2-enoyl}(pentylsulfonyl)azanide] showed a pEC50 of 7.41. The compound `CCCCS(=O)(=O)NC(=O)/C=C/c1c(C)nn(C)c1-n1ccc2cc(Cl)cnc21` [Example 283, (2E)-N-(butylsulfonyl)-3-[5-(5-chloro-1H-pyrrolo[2,3-b]pyridin-1-yl)-1,3-dimethyl-1H-pyrazol-4-yl]acrylamide] showed a pEC50 of 7.85. The value for `CCCCCS(=O)(=O)NC(=O)OCCc1c(C)nn(C)c1-n1ccc2cc(Cl)ccc21` [Example 66, 2-[5-(5-chloro-1H-indol-1-yl)-1,3-dimethyl-1H-pyrazol-4-yl]ethyl (pentylsulfonyl)carbamate] was 7.66. On to `CCCCCS(=O)(=O)NC(=O)NCCCc1c(C)nn(C)c1-n1ccc2cc(Cl)ccc21` [Example 82, N-[({3-[5-(5-chloro-1H-indol-1-yl)-1,3-dimethyl-1H-pyrazol-4-yl]propyl}amino)carbonyl]pentane-1-sulfonamide], for which the pEC50 is 7.17.

`Cc1ccc(S(=O)(=O)NC(=O)/C=C/c2c(C)nn(C)c2-n2ccc3cccnc32)cc1` [Example 33, (2E)-3-[1,3-dimethyl-5-(1H-pyrrolo[2,3-b]pyridin-1-yl)-1H-pyrazol-4-yl]-N-[(4-methylphenyl)sulfonyl]acrylamide] gave a pEC50 of 7.06.

The compound `Cc1nn(C)c(-n2ccc3cc(Cl)cnc32)c1/C=C/C(=O)NS(=O)(=O)NCC1CC1` [Example 264, (2E)-3-[5-(5-chloro-1H-pyrrolo[2,3-b]pyridin-1-yl)-1,3-dimethyl-1H-pyrazol-4-yl]-N-{[(cyclopropylmethyl)amino]sulfonyl}acrylamide] showed a pEC50 of 7.59. For `CCCCNC(=O)NS(=O)(=O)CCc1c(C)nn(C)c1-n1ccc2cc(C(F)(F)F)cnc21` [Example 294, N-[(butylamino)carbonyl]-2-{1,3-dimethyl-5-[5-(trifluoromethyl)-1H-pyrrolo[2,3-b]pyridin-1-yl]-1H-pyrazol-4-yl}ethanesulfonamide], the pEC50 is 7.49. Compound `CCCCCS(=O)(=O)NC(=O)/C=C/c1c(C)nn(C)c1-n1ccc2cccnc21` [Example 9, (2E)-3-[1,3-dimethyl-5-(1H-pyrrolo[2,3-b]pyridin-1-yl)-1H-pyrazol-4-yl]-N-(pentylsulfonyl)acrylamide] had a pEC50 of 7.19. In turn, `CCCCCS(=O)(=O)NC(=O)/C=C/c1c(C)nn(C)c1-n1ccc2ccc(C(F)(F)F)cc21` [Example 31, potassium ((2E)-3-{1,3-dimethyl-5-[6-(trifluoromethyl)-1H-indol-1-yl]-1H-pyrazol-4-yl}prop-2-enoyl)(pentylsulfonyl)azanide] had a pEC50 of 8.26. As for `CCCCCS(=O)(=O)NC(=O)/C=C/c1c(C)nn(C)c1-n1ccc2cc(C)cnc21` [Example 232, (2E)-3-[1,3-dimethyl-5-(5-methyl-1H-pyrrolo[2,3-b]pyridin-1-yl)-1H-pyrazol-4-yl]-N-(pentylsulfonyl)acrylamide], the pEC50 was 7.82. `Cc1nn(C)c(-n2ccc3cc(Cl)ccc32)c1CCS(=O)(=O)NC(=O)OCC1CC1` [Example 189, cyclopropylmethyl ({2-[5-(5-chloro-1H-indol-1-yl)-1,3-dimethyl-1H-pyrazol-4-yl]ethyl}sulfonyl)carbamate] showed a pEC50 of 7.27. Take `CCCCCS(=O)(=O)NC(=O)/C=C/c1c(C)nn(C)c1-n1ccc2cc(Cl)ccc21` [Example 27, (2E)-3-[5-(5-chloro-1H-indol-1-yl)-1,3-dimethyl-1H-pyrazol-4-yl]-N-(pentylsulfonyl)acrylamide]: the negative-log EC50 (pEC50) is 8.21. The figure for `CCCCNS(=O)(=O)NC(=O)/C=C/c1c(C)nn(C)c1-n1ccc2cc(Cl)ccc21` [Example 99, (2E)-N-[(butylamino)sulfonyl]-3-[5-(5-chloro-1H-indol-1-yl)-1,3-dimethyl-1H-pyrazol-4-yl]acrylamide] is 7.62; for `CCCCOC(=O)NS(=O)(=O)CCc1c(C)nn(C)c1-n1ccc2cc(C(F)(F)F)cnc21` [Example 295, butyl [(2-{1,3-dimethyl-5-[5-(trifluoromethyl)-1H-pyrrolo[2,3-b]pyridin-1-yl]-1H-pyrazol-4-yl}ethyl)sulfonyl]carbamate] it is 7.66; for `CCCCCS(=O)(=O)NC(=O)CCc1c(C)nn(C)c1N1CCc2cccnc21` [Example 40, 3-[5-(2,3-dihydro-1H-pyrrolo[2,3-b]pyridin-1-yl)-1,3-dimethyl-1H-pyrazol-4-yl]-N-(pentylsulfonyl)propanamide] it is 7.92.

In turn, `Cc1nn(C)c(-n2ccc3cc(Cl)ccc32)c1/C=C1\SC(=O)NC1=O` [Example 84, (5Z)-5-{[5-(5-chloro-1H-indol-1-yl)-1,3-dimethyl-1H-pyrazol-4-yl]methylene}-1,3-thiazolidine-2,4-dione] showed a pEC50 of 6.66. For the compound `Cc1nn(C)c(-n2ccc3cc(Cl)ccc32)c1/C=C/C(=O)NS(=O)(=O)c1ccco1` [Example 55, (2E)-3-[5-(5-chloro-1H-indol-1-yl)-1,3-dimethyl-1H-pyrazol-4-yl]-N-(2-furylsulfonyl)acrylamide], the pEC50 is 7.36. For the compound `CCCCCS(=O)(=O)NC(=O)/C=C/c1c(C)nn(C)c1-c1csc2ccccc12` [Example 6, (2E)-3-[5-(1-benzothien-3-yl)-1,3-dimethyl-1H-pyrazol-4-yl]-N-(pentylsulfonyl)acrylamide], the pEC50 is 7.72. The value for `CCCCOC(=O)NS(=O)(=O)CCc1c(C(F)(F)F)nn(C)c1-n1ccc2cc(Cl)cnc21` [Example 197, butyl ({2-[5-(5-chloro-1H-pyrrolo[2,3-b]pyridin-1-yl)-1-methyl-3-(trifluoromethyl)-1H-pyrazol-4-yl]ethyl}sulfonyl)carbamate] was 7.07.
